# Laboratory results taken from ChEMBL document CHEMBL1201862, “PubChem BioAssay data set” (2004).
#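 Assay format: 96-well plates, 48-hour exposure. Here, GI50 denotes the concentration required for 50% inhibition of growth.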 Activity calls are given as the source filed them. Rule as the data show it: active = GI50 up to about 1.1 µM and inactive = higher.
# Legend:
# Experiment in all cases: NCI tumour cell line growth inhibition, 48 h
# U-251 = test system: U-251
# BT-549 = test system: BT-549
# K562 = test system: K562
# RXF 393 = test system: RXF 393
# SNB-19 = test system: SNB-19
# OVCAR-8 = test system: OVCAR-8
# SF-539 = test system: SF-539
# UO-31 = test system: UO-31
# UACC-257 = test system: UACC-257
# HL-60 = test system: HL-60
# HCT-116 = test system: HCT-116
# SF-295 = test system: SF-295
# Malme-3M = test system: Malme-3M
# SN12C = test system: SN12C
# NCI-H23 = test system: NCI-H23
# MCF7 = test system: MCF7
# LOX IMVI = test system: LOX IMVI
# CCRF-CEM = test system: CCRF-CEM
# MOLT-4 = test system: MOLT-4
# NCI/ADR-RES = test system: NCI/ADR-RES
SMILES,GI50 (U-251),GI50 (BT-549),GI50 (K562),GI50 (RXF 393),GI50 (SNB-19),GI50 (OVCAR-8),GI50 (SF-539),GI50 (UO-31),GI50 (UACC-257),GI50 (HL-60),GI50 (HCT-116),GI50 (SF-295),GI50 (Malme-3M),GI50 (SN12C),GI50 (NCI-H23),GI50 (MCF7),GI50 (LOX IMVI),GI50 (CCRF-CEM),GI50 (MOLT-4),GI50 (NCI/ADR-RES)
CSc1ccc(/C=C2\CNC/C(=C\c3ccc(SC)cc3)C2=O)cc1,16.9 µM (inactive),> 371 µM (inactive),> 371 µM (inactive),25.9 µM (inactive),26.7 µM (inactive),52.4 µM (inactive),18.4 µM (inactive),> 252 µM (inactive),> 143 µM (inactive),> 74.3 µM (inactive),144 µM (inactive),29.4 µM (inactive),> 199 µM (inactive),> 139 µM (inactive),–,–,–,–,–,–
COc1cc(C2=N/C(=C/c3cccs3)C(=O)O2)cc(OC)c1OC,> 100 µM (inactive),> 100 µM (inactive),> 100 µM (inactive),> 100 µM (inactive),> 100 µM (inactive),> 100 µM (inactive),> 100 µM (inactive),–,> 100 µM (inactive),> 100 µM (inactive),> 100 µM (inactive),> 100 µM (inactive),> 100 µM (inactive),> 100 µM (inactive),> 100 µM (inactive),> 100 µM (inactive),> 100 µM (inactive),> 100 µM (inactive),> 100 µM (inactive),–
COC(=O)CCC1(C)C2CCC1(C)/C(=N/O)C2 (stereo not drawn),> 100 µM (inactive),> 100 µM (inactive),> 100 µM (inactive),> 100 µM (inactive),> 100 µM (inactive),> 100 µM (inactive),–,> 100 µM (inactive),> 100 µM (inactive),–,> 100 µM (inactive),> 100 µM (inactive),> 100 µM (inactive),> 100 µM (inactive),> 100 µM (inactive),> 100 µM (inactive),–,> 100 µM (inactive),> 100 µM (inactive),> 100 µM (inactive)
FC(F)(F)C1(Cl)C(c2ccccc2)=C1c1ccccc1,14.7 µM (inactive),–,12.2 µM (inactive),13.3 µM (inactive),17.9 µM (inactive),14.9 µM (inactive),15.6 µM (inactive),17.9 µM (inactive),14 µM (inactive),7.73 µM (inactive),13.9 µM (inactive),14.9 µM (inactive),15.1 µM (inactive),15.6 µM (inactive),15.7 µM (inactive),–,11.5 µM (inactive),2.49 µM (inactive),4.01 µM (inactive),–
COc1cc(C2c3cc4c(cc3[C@@H](Nc3ccccc3)C3CO[C@@H](OC)[C@H]23)OCO4)cc(OC)c1O (stereo partly drawn),5.55 µM (inactive),–,6.78 µM (inactive),–,6.07 µM (inactive),7.03 µM (inactive),5.41 µM (inactive),3.01 µM (inactive),> 25 µM (inactive),2.87 µM (inactive),7.38 µM (inactive),3.46 µM (inactive),–,7.36 µM (inactive),–,4.5 µM (inactive),–,2.76 µM (inactive),0.984 µM (active),14.6 µM (inactive)
CN(C(=O)/C=C/c1ccccc1)C1C2CN3CCC(O2)C13 (stereo not drawn),> 100 µM (inactive),–,> 100 µM (inactive),> 100 µM (inactive),> 100 µM (inactive),> 100 µM (inactive),> 100 µM (inactive),> 100 µM (inactive),> 100 µM (inactive),> 100 µM (inactive),> 100 µM (inactive),> 100 µM (inactive),> 100 µM (inactive),> 100 µM (inactive),> 100 µM (inactive),–,> 100 µM (inactive),> 100 µM (inactive),> 100 µM (inactive),–
